Consider 43 molecules from PubChem BioAssay (NCI).

Structures are written as SMILES.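 In this assay, cells in 96-well plates receive the compound at five concentrations for 48 hours. Endpoints are linearly interpolated between the surrounding concentrations. Abbreviation: GI50, concentration required for 50% inhibition of growth. TGI denotes the concentration required for complete inhibition of growth.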

Holding throughout (experiment): growth of human tumour cells (NCI), 48 h
Assay [1] relates to MDA-N.
Assay [2] relates to DLD-1 colon.
Assay [3] relates to DMS 273 small cell lung.
For assay [4], the system named is KM20L2 colon.
The subject of assay [5] is LXFL 529 NSCLC.
In assay [6] the test system is M19-MEL melanoma.
For assay [7], the system named is XF 498 CNS.
Assay [8] concerns RXF-631 renal.

On to `CCN1CCCCC(=N\O)/C(=N/O)CCCC1`, for which, in assay [1], the TGI was over 100 µM.

`CN(Cc1ccccc1)C1(N(C)Cc2ccccc2)CC1`: the TGI in assay [2], in assay [3], in assay [4], in assay [5], in assay [6] and in assay [7] was over 100 µM in each case.

In the case of `C1C[OH+]CC[OH+]CC[OH+]CC[OH+]CC[OH+]CC[OH+]1.[Cl-].[Ta+5]`, in assay [4], the GI50 is over 100 µM and the TGI was over 100 µM.

Turning to `CCOC(=O)C1(C(=O)OCC)CC=C(C)CC12C(=O)Nc1ccccc12` (stereo unspecified), the TGI in assay [2], in assay [3], in assay [4], in assay [5], in assay [6] and in assay [7] was over 100 µM throughout.

For `C=CCC(C)(C(=O)NCCC)C(=O)c1ccccc1O` (stereo unspecified), the TGI in assay [2], in assay [3], in assay [4], in assay [5] and in assay [6] was over 100 µM each time.

For the molecule `O=C(CC(=O)c1ccccc1NC1=Cc2ccccc2C(=O)C1=O)C(=O)NC1=C(Cl)C(=O)c2ccccc2C1=O`, the TGI in assay [2] is 11.7 µM; in assay [3], 6.8 µM; in assay [4], 30.5 µM; in assay [5] it was 8.6 µM; in assay [6], 0.931 µM; in assay [1] it was 3.15 µM. The figures for the TGI in assay [8] and in assay [7] were 31.9 µM and 4.66 µM, respectively.

Take `CCCCCCCCCC(=O)N[C@H]1CCc2cc(OC)c(OC)c(OC)c2-c2ccc(SC)c(=O)cc21`: the GI50 in assay [2] was 11.2 µM. Further, the TGI in assay [2] came out at 57.7 µM; in assay [3], 0.295 µM; in assay [4], 0.0387 µM; in assay [5] it was 96.7 µM; in assay [6], 67.4 µM; in assay [7] it was 0.0693 µM.

Turning to `COC1(OC)c2ccccc2C2(O)c3ccccc3C(=O)C12` (stereo unspecified), the TGI in assay [3] was over 100 µM; in assay [4], over 100 µM; in assay [5] it was over 100 µM; in assay [6] it was over 100 µM; in assay [7], 58.8 µM.

Turning to `CCc1cccc(C(C)CC)c1NC(=O)CC1C(=O)Nc2ccccc2S1=O` (stereo unspecified), the TGI in assay [2], in assay [3], in assay [4], in assay [5], in assay [6] and in assay [8] was over 100 µM throughout.

On to `Cc1cccc(N2C(=O)C(=O)C(c3nc4ccccc4s3)C(=O)C2=O)c1C`, for which the TGI in assay [2], in assay [3], in assay [4], in assay [5], in assay [6] and in assay [8] was over 100 µM each time.

Turning to `COc1ccc(/C=C/C(C(=O)O)C(=O)O)cc1`, the TGI in assay [2], in assay [3], in assay [4], in assay [5], in assay [6] and in assay [7] was over 100 µM each time.

`Cc1ccc(N(C(=O)CC(=O)N2N=C(c3ccccc3)C(N=Nc3ccc([N+](=O)[O-])cc3)C2=O)C(=O)c2ccc(Cl)cc2)cc1` (stereo unspecified): the TGI is over 55.9 µM in assay [2]; 20.3 µM in assay [3]; over 100 µM in assay [4]; over 52.9 µM in assay [5]; over 53.9 µM in assay [6]; 52.2 µM in assay [7].

Turning to `C=CCNC(=S)OCCCCCCCCCC`, the TGI in assay [2] was 30.7 µM; in assay [3], 37.3 µM; in assay [4] it was 33.2 µM; in assay [5], 28.5 µM; in assay [6], 32.5 µM; in assay [7] it was 29.7 µM.

As to `O=C1CCC(=O)C12CCc1cccc(O)c12`, the TGI in assay [2], in assay [3], in assay [4], in assay [5], in assay [6] and in assay [7] was over 100 µM throughout.

Take `COP1(=S)OCC2CCC[C@@H]2O1` (stereo partly specified): the TGI in assay [1] is over 100 µM.

On to `O=C1NC(=S)NC(=O)C1=Cc1ccc2ccccc2n1`, for which the TGI in assay [2], in assay [3], in assay [4], in assay [5] and in assay [6] was over 100 µM throughout.

`CCc1nc(N)nc(N)c1-c1ccc(Cl)c(N=NN(C)C)c1` came in with a TGI in assay [1] of over 100 µM.

Consider `CC1=N/C(=C\c2cccc3ccccc23)C(=O)O1`, for which the TGI in assay [2], in assay [4], in assay [5], in assay [6] and in assay [8] was over 100 µM in each case.

As for `N#Cc1nc(Nc2ccc([N+](=O)[O-])cc2)sc1N`, the TGI in assay [2] was over 100 µM; in assay [3], over 100 µM; in assay [4], over 100 µM; in assay [5], over 100 µM; in assay [6], over 100 µM; in assay [8] it was over 75 µM. Further, the TGI in assay [7] is over 100 µM.

Turning to `COc1ccc(Nc2c[nH]c(=O)[nH]c2=O)cc1`, in assay [1], the TGI was over 100 µM.

In the case of `NC(=S)N/N=C(\C(=O)Nc1ccc(Cl)c(Cl)c1)C1=NN(c2ccccc2)C(c2cccc([N+](=O)[O-])c2)CC1=O` (stereo unspecified), the TGI is 47.5 µM in assay [2]; 45.2 µM in assay [3]; 46.8 µM in assay [4]; 48.1 µM in assay [5]; 50.5 µM in assay [6]; over 100 µM in assay [8]. In addition, in assay [7], the TGI is over 100 µM.

Consider `CC1=C(c2cc(C(=O)Nc3cccc(C(F)(F)F)c3)nc(NC#N)n2)Sc2ccccc2N1`, for which the TGI in assay [2], in assay [3], in assay [4], in assay [5], in assay [6] and in assay [8] was over 100 µM throughout.

Take `O=C1CCC2CCOc3ccc(O)c1c32` (stereo unspecified): the TGI in assay [2], in assay [3], in assay [4], in assay [6] and in assay [8] was over 100 µM throughout.

Turning to `CC(C)(CCC(C)(C)c1ccccc1)c1ccccc1`, in assay [1], the TGI came out at 56.8 µM.

In the case of `CC(C)c1ccc(O)c(=O)cc1`, the TGI in assay [2] was over 100 µM; in assay [3], over 46.3 µM; in assay [4], over 100 µM; in assay [5], over 100 µM; in assay [6] it was over 70.9 µM; in assay [7], over 100 µM. In assay [1], the GI50 is 22.7 µM.

With `N#Cc1ccc2oc3ccc(C#N)cc3c(=O)c2c1`, in assay [1], the TGI came to 31.9 µM.

With `COC(=O)c1ccccc1N=Cc1ccc(N(CCC#N)S(=O)(=O)c2ccccc2)cc1`, the TGI in assay [2], in assay [3], in assay [4], in assay [5], in assay [6] and in assay [8] was over 100 µM each time. Moreover, the TGI in assay [7] is over 100 µM.

In turn, `CS(=O)(=O)CS(=O)CS(=O)CS(=O)CC(NC(=O)CCC(N)C(=O)O)C(=O)O` (stereo unspecified) showed a TGI in assay [1] of over 100 µM.

Turning to `O=C1c2ccccc2C2(O)Oc3cccc(O)c3C12O` (stereo unspecified), the TGI in assay [2], in assay [3], in assay [4], in assay [5], in assay [6] and in assay [8] was over 100 µM throughout.

As to `COc1cc(/C=C2\CCc3ccccc3C2=O)cc(OC)c1OC`, the TGI was found to be 28.3 µM in assay [2]; 24.2 µM in assay [3]; 31.1 µM in assay [4]; 29.5 µM in assay [5]; 30 µM in assay [6]; 38.6 µM in assay [8]. Further, the TGI in assay [7] came out at 32.1 µM.

Regarding `O=C(O/N=C1/CCCC/C1=C\c1ccccc1)c1ccc(Cl)cc1`, the TGI was over 100 µM in assay [2]; over 100 µM in assay [3]; over 100 µM in assay [4]; over 100 µM in assay [5]; over 100 µM in assay [6]; 48.1 µM in assay [7].

Take `CC1=N/C(=C\c2ccc([N+](=O)[O-])cc2)C(=O)O1`: the TGI in assay [2], in assay [4], in assay [5], in assay [6] and in assay [8] was over 100 µM each time.

`Cc1nc2ccc(NCCN(C)C)c3c(=O)c4cc(O)ccc4n1c23`: the TGI in assay [3] amounted to 1.76 µM; in assay [5] it was 11.1 µM; in assay [6], 9.27 µM; in assay [1] it was 13.7 µM; in assay [8], 1.96 µM; in assay [7], 11.2 µM.

Consider `Cn1cnc([N+](=O)[O-])c1Sc1nnc(C(F)(F)F)n1C`, for which the TGI was determined as 33.5 µM in assay [2]; 87.5 µM in assay [3]; 27.8 µM in assay [5]; 37.2 µM in assay [6]; 39.6 µM in assay [8].

On to `CC(C)(C)C(=O)OCC(COC(=O)C(C)(C)C)[N+](=O)[O-]`, for which the TGI in assay [2], in assay [3], in assay [5], in assay [6] and in assay [7] was over 100 µM each time.

Consider `Oc1ccc(SCc2ccc(NCc3ccccc3)cc2)cc1`, for which the TGI in assay [1] is 57.4 µM.

Turning to `CC1(CO)C(=O)OC12CCCCC2` (stereo unspecified), the TGI in assay [2], in assay [3], in assay [5], in assay [6], in assay [8] and in assay [7] was over 100 µM throughout.

As to `CN(C)CCNC(=O)c1cccc2c1nc(-c1ccccn1)c1ccccc12`, the TGI in assay [2] was 31 µM; in assay [3] it was 29.9 µM; in assay [6], 32 µM.

On to `CC(C)CC(=O)CC(O)C(Cl)(Cl)Cl` (stereo unspecified), for which the TGI in assay [1] is over 100 µM.

In the case of `Cc1nn(C)c(=S)n(C)c1=O`, the TGI was over 100 µM in assay [2]; 11 µM in assay [3]; over 100 µM in assay [4]; 54.6 µM in assay [5]; over 100 µM in assay [6]; 5.31 µM in assay [7].

As for `C=C1C(=O)O[C@H]2[C@H]1CC(=O)/C(C)=C\CC[C@@]1(C)O[C@@H]21`, in assay [1], the GI50 is 3.58 µg/mL and the TGI came out at 7.87 µg/mL.

Regarding `Cc1nn(C)c(=O)c2nn(-c3ccccc3)c(C)c12`, the TGI in assay [2], in assay [3], in assay [4], in assay [5] and in assay [6] was over 100 µM throughout.

For the molecule `COc1ccc(S(=O)(=O)N/N=C(\C)CN2C(=O)c3ccccc3C2=O)cc1`, the TGI in assay [2], in assay [3], in assay [4], in assay [5], in assay [6] and in assay [8] was over 100 µM throughout.
